Measured values reported in patent publication US20240409585A1, “MACROCYCLIC IMMUNOMODULATORS” (priority 2021, published 2024).
Bridge positions count the residues as written; N and C are the ends. Square brackets hold non-standard residues; d marks the D form. Peptide text beside a SMILES is read from it. * marks the point of attachment. ξ: configuration not given here. Phe(4-COOH) = N[C@@H](Cc1ccc(C(=O)O)cc1)C(=O)O; Phe(4-CH2NH2) = NCc1ccc(C[C@H](N)C(=O)O)cc1; dPhe(2,4-F2) = N[C@H](Cc1ccc(F)cc1F)C(=O)O; Bip = N[C@@H](Cc1ccc(-c2ccccc2)cc1)C(=O)O; Phe(3-Cl) = N[C@@H](Cc1cccc(Cl)c1)C(=O)O; Phe(3-Me) = Cc1cccc(C[C@H](N)C(=O)O)c1; Bta = N[C@@H](Cc1csc2ccccc12)C(=O)O; Val(3-OH) = CC(C)(O)[C@H](N)C(=O)O; aIle = CC[C@@H](C)[C@H](N)C(=O)O; 2Thi = N[C@@H](Cc1cccs1)C(=O)O; Cha = N[C@@H](CC1CCCCC1)C(=O)O; Cit = NC(=O)NCCC[C@H](N)C(=O)O; Ile(3ξ) = CCC(C)[C@H](N)C(=O)O; Thr(3ξ) = CC(O)[C@H](N)C(=O)O; Ahp(2) = CCCCC[C@H](N)C(=O)O; dPip = O=C(O)[C@H]1CCCCN1; Carboxymethyl = O=C(O)C*; NMeA = CN[C@@H](C)C(=O)O; Nle = CCCC[C@H](N)C(=O)O; Orn = NCCC[C@H](N)C(=O)O; Dab = NCC[C@H](N)C(=O)O; Dap = NC[C@H](N)C(=O)O; Ac3c = NC1(C(=O)O)CC1

Molecular target: T1, PE-labeled human PD-L1-Ig binding to Jurkat cell line over-expressing human PD-1 (Jurkat-PD-1) (Homo sapiens, UniProt Q15116)
T1 construct: expressed in transfected cells; host or cells: Jurkat
T1 sequence (Q15116 25-288): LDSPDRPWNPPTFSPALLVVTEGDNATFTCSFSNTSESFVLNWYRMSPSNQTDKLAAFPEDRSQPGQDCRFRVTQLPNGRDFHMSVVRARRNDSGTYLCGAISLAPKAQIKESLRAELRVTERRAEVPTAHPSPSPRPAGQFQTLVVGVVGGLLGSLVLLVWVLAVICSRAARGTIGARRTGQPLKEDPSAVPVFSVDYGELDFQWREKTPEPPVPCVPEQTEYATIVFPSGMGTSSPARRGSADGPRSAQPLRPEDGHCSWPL
Experiment: Jurkat-PD-1 Cell Binding High-Content Screening Assay (CBA): Method 1
Details: Jurkat-hPD-1 cells, PE-labeled PD-L1-Ig 20 nM final; read-out: Jurkat HPDL1 PD1 IC50 (uM) (Method 1)

Row | SMILES | IC50
1 | CC(C)C[C@@H]1NC(=O)[C@H](CCCNC(=N)N)NC(=O)[C@H](Cc2csc3ccccc23)NC(=O)[C@H](C)N(C)C(=O)[C@H](CCCN)NC(=O)[C@H](Cc2ccc(-c3ccccc3)cc2)NC(=O)[C@H](C(C)C)NC(=O)[C@H](Cc2c[nH]c3ccccc23)NC(=O)[C@H](CC(=O)O)NC(=O)[C@H](Cc2ccc(O)cc2)NC(=O)[C@H](Cc2ccccc2)NC(=O)CSC[C@@H](C(=O)N[C@@H](C)C(N)=O)NC(=O)[C@H]([C@@H](C)O)NC(=O)[C@H](C(C)C)NC1=O [Compound 1124] ({CH2CO}-FYDWV[Bip][Orn][NMeA][Bta]RLVTCA-NH2; thioether N-14) | 0.69 µM
2 | CC(C)C[C@@H]1NC(=O)[C@H](CCCNC(=N)N)NC(=O)[C@@H](Cc2ccc(F)cc2F)NC(=O)[C@H](C)N(C)C(=O)[C@H](CCCNC(=N)N)NC(=O)[C@H](Cc2ccc(-c3ccccc3)cc2)NC(=O)[C@H](C(C)C)NC(=O)[C@H](Cc2c[nH]c3ccccc23)NC(=O)[C@H](CC(=O)O)NC(=O)[C@H](Cc2ccc(O)cc2)NC(=O)[C@H](Cc2ccccc2)NC(=O)CSC[C@@H](C(=O)N[C@@H](C)C(N)=O)NC(=O)[C@H]([C@@H](C)O)NC(=O)[C@H](C(C)C)NC1=O [Compound 1073] ({CH2CO}-FYDWV[Bip]R[NMeA][dPhe(2,4-F2)]RLVTCA-NH2; thioether N-14) | 0.13 µM
3 | CCCC[C@@H]1NC(=O)[C@H](CCCNC(=N)N)NC(=O)[C@@H](CC(C)C)NC(=O)[C@H](C)N(C)C(=O)[C@H]([C@@H](C)CC)NC(=O)[C@H](Cc2ccc(-c3ccccc3)cc2)NC(=O)[C@H](C(C)C)NC(=O)[C@H](Cc2c[nH]c3ccccc23)NC(=O)[C@H](CC(=O)O)NC(=O)[C@H](Cc2ccc(O)cc2)NC(=O)[C@H](Cc2ccccc2)NC(=O)CSC[C@@H](C(=O)N[C@@H](C)C(N)=O)NC(=O)[C@H]([C@@H](C)O)NC(=O)[C@H](C(C)C)NC1=O [Compound 1499] ({CH2CO}-FYDWV[Bip]I[NMeA][dL]R[Nle]VTCA-NH2; thioether N-14) | 0.14 µM
4 | CC[C@@H](C)[C@@H]1NC(=O)[C@H](Cc2ccc(-c3ccccc3)cc2)NC(=O)[C@H](CC(C)C)NC(=O)[C@H](Cc2cccc(C)c2)NC(=O)[C@H](CC(=O)O)NC(=O)[C@H](Cc2ccc(OCC(=O)O)cc2)NC(=O)[C@H](CN)NC(=O)CSC[C@@H](C(N)=O)NC(=O)[C@H](CO)NC(=O)[C@H](C(C)C)NC(=O)[C@H](CC(C)C)NC(=O)[C@H](CC(N)=O)NC(=O)[C@@H](CC(C)C)NC(=O)[C@H](C)N(C)C1=O [Compound 1640] ({CH2CO}-[Dap]Y(Carboxymethyl)D[Phe(3-Me)]L[Bip][aIle][NMeA][dL]NLVSC-NH2; thioether N-14) | 0.1 µM
5 | CC(C)C[C@@H]1NC(=O)[C@H](CCN)NC(=O)[C@@H](CC(C)C)NC(=O)[C@H]2CCCCN2C(=O)[C@H](C(C)C)NC(=O)[C@H](Cc2ccc(-c3ccccc3)cc2)NC(=O)[C@H](C(C)C)NC(=O)[C@H](Cc2c[nH]c3ccccc23)NC(=O)[C@H](CC(=O)O)NC(=O)[C@H](Cc2ccc(O)cc2)NC(=O)[C@H](CC(N)=O)NC(=O)CSC[C@@H](C(=O)N[C@@H](C)C(N)=O)NC(=O)[C@H]([C@@H](C)O)NC(=O)[C@H](C(C)C)NC1=O [Compound 1268] ({CH2CO}-NYDWV[Bip]V[dPip][dL][Dab]LVTCA-NH2; thioether N-14) | 0.11 µM
6 | Cc1cccc(C[C@@H]2NC(=O)[C@H](CC(N)=O)NC(=O)CSC[C@@H](C(=O)N[C@@H](C)C(N)=O)NC(=O)[C@H]([C@@H](C)O)NC(=O)[C@H](C(C)C)NC(=O)[C@H](CC(C)C)NC(=O)[C@H](CCN)NC(=O)[C@@H](CC(C)C)NC(=O)[C@H](C)N(C)C(=O)[C@H](CCCNC(=N)N)NC(=O)[C@H](Cc3ccc(-c4ccccc4)cc3)NC(=O)[C@H](C(C)C)NC(=O)[C@H](Cc3c[nH]c4ccccc34)NC(=O)[C@H](CC(=O)O)NC2=O)c1 [Compound 1305] ({CH2CO}-N[Phe(3-Me)]DWV[Bip]R[NMeA][dL][Dab]LVTCA-NH2; thioether N-14) | 0.2 µM

The next compounds have a lower IC50 than those just listed; values first:

Row | IC50 | SMILES
7 | 0.09 µM | CC(C)C[C@@H]1NC(=O)[C@H](CCCNC(=N)N)NC(=O)[C@@H](CC(C)C)NC(=O)[C@H](C)N(C)C(=O)[C@H](CCCNC(=N)N)NC(=O)[C@H](Cc2ccc(-c3ccccc3)cc2)NC(=O)[C@H](C(C)C)NC(=O)[C@H](Cc2cccc(Cl)c2)NC(=O)[C@H](CC(=O)O)NC(=O)[C@H](Cc2ccc(O)cc2)NC(=O)[C@H](CC(N)=O)NC(=O)CSC[C@@H](C(=O)N[C@@H](C)C(N)=O)NC(=O)[C@H]([C@@H](C)O)NC(=O)[C@H](C(C)C)NC1=O [Compound 1127] ({CH2CO}-NYD[Phe(3-Cl)]V[Bip]R[NMeA][dL]RLVTCA-NH2; thioether N-14)
8 | 0.06 µM | CCCCC[C@@H]1NC(=O)[C@H](Cc2ccc(-c3ccccc3)cc2)NC(=O)[C@H](C(C)C)NC(=O)[C@H](Cc2c[nH]c3ccccc23)NC(=O)[C@H](CC(=O)O)NC(=O)[C@H](Cc2ccc(O)cc2)NC(=O)[C@H](CC(N)=O)NC(=O)CSC[C@@H](C(=O)N[C@@H](C)C(N)=O)NC(=O)[C@H](C(C)O)NC(=O)[C@H](C(C)C)NC(=O)[C@H](CC(C)C)NC(=O)[C@H](CCN)NC(=O)[C@@H](CC(C)C)NC(=O)[C@H](C)N(C)C1=O (stereo partly drawn) [Compound 2083] ({CH2CO}-NYDWV[Bip][Ahp(2)][NMeA][dL][Dab]LV[Thr(3ξ)]CA-NH2; thioether N-14)
9 | 0.06 µM | CCC(C)[C@@H]1NC(=O)[C@H](Cc2ccc(-c3ccccc3)cc2)NC(=O)[C@H](C(C)C)NC(=O)[C@H](Cc2c[nH]c3ccccc23)NC(=O)[C@H](CC(=O)O)NC(=O)[C@H](Cc2ccc(O)cc2)NC(=O)[C@H](Cc2ccc(CN)cc2)NC(=O)CSC[C@@H](C(=O)N[C@@H](C)C(N)=O)NC(=O)[C@H](C(C)O)NC(=O)[C@H](C(C)C)NC(=O)[C@H](CC2CCCCC2)NC(=O)[C@H](CC(N)=O)NC(=O)[C@@H](CC(C)C)NC(=O)[C@H](C)N(C)C1=O (stereo partly drawn) [Compound 2047] ({CH2CO}-[Phe(4-CH2NH2)]YDWV[Bip][Ile(3ξ)][NMeA][dL]N[Cha]V[Thr(3ξ)]CA-NH2; thioether N-14)
10 | 0.04 µM | Cc1cccc(C[C@@H]2NC(=O)[C@H](CC(=O)O)NC(=O)[C@H](Cc3ccc(OCC(=O)O)cc3)NC(=O)[C@H]([C@@H](C)O)NC(=O)CSC[C@@H](C(=O)NC3(C(N)=O)CC3)NC(=O)[C@H](CO)NC(=O)[C@H](C(C)C)NC(=O)[C@H](CC3CCCCC3)NC(=O)[C@H](CCN)NC(=O)[C@@H](CC(C)C)NC(=O)[C@H](C)N(C)C(=O)[C@H](Cc3ccc(OCC(=O)O)cc3)NC(=O)[C@H](Cc3ccc(-c4ccccc4)cc3)NC(=O)[C@H](Cc3ccc(OCC(=O)O)cc3)NC2=O)c1 [Compound 1862] ({CH2CO}-TY(Carboxymethyl)D[Phe(3-Me)]Y(Carboxymethyl)[Bip]Y(Carboxymethyl)[NMeA][dL][Dab][Cha]VSC[Ac3c]-NH2; thioether N-14)
11 | 0.03 µM | CC(C)C[C@@H]1NC(=O)[C@H](CCN)NC(=O)[C@@H](CC(C)C)NC(=O)[C@H](C)N(C)C(=O)[C@H](CCCN)NC(=O)[C@H](Cc2ccc(-c3ccccc3)cc2)NC(=O)[C@H](C(C)C)NC(=O)[C@H](Cc2c[nH]c3ccccc23)NC(=O)[C@H](CC(=O)O)NC(=O)[C@H](Cc2ccc(OCC(=O)O)cc2)NC(=O)[C@H](CC(N)=O)NC(=O)CSC[C@@H](C(=O)N[C@@H](C)C(N)=O)NC(=O)[C@H]([C@@H](C)O)NC(=O)[C@H](C(C)C)NC1=O [Compound 1387] ({CH2CO}-NY(Carboxymethyl)DWV[Bip][Orn][NMeA][dL][Dab]LVTCA-NH2; thioether N-14)
12 | 0.02 µM | Cc1cccc(C[C@@H]2NC(=O)[C@H](CC(=O)O)NC(=O)[C@H](Cc3ccc(C(=O)O)cc3)NC(=O)[C@H](Cc3ccc(OCC(=O)O)cc3)NC(=O)CSC[C@@H](C(=O)N[C@H](CC(N)=O)C(N)=O)NC(=O)[C@H](CO)NC(=O)[C@H](C(C)C)NC(=O)[C@H](CC(C)C)NC(=O)[C@H](CCN)NC(=O)[C@@H](CC(C)C)NC(=O)[C@H](C)N(C)C(=O)[C@H](C(C)C)NC(=O)[C@H](Cc3ccc(-c4ccccc4)cc3)NC(=O)[C@H](CC(C)C)NC2=O)c1 [Compound 2112] ({CH2CO}-Y(Carboxymethyl)[Phe(4-COOH)]D[Phe(3-Me)]L[Bip]V[NMeA][dL][Dab]LVSC[dN]-NH2; thioether N-14)
13 | 0.01 µM | CC(=O)NCC[C@H](NC(=O)[C@@H]1CSCC(=O)N[C@@H](Cc2cccs2)C(=O)N[C@@H](Cc2ccc(OCC(=O)O)cc2)C(=O)N[C@@H](CC(=O)O)C(=O)N[C@@H](Cc2cccc(C)c2)C(=O)N[C@@H](Cc2ccc(C(=O)O)cc2)C(=O)N[C@@H](Cc2ccc(-c3ccccc3)cc2)C(=O)N[C@@H](Cc2ccc(OCC(=O)O)cc2)C(=O)N(C)[C@@H](C)C(=O)N[C@H](CC(C)C)C(=O)N[C@@H](CCN)C(=O)N[C@@H](CC2CCCCC2)C(=O)N[C@@H](C(C)(C)O)C(=O)N[C@@H](Cc2cnc[nH]2)C(=O)N1)C(N)=O [Compound 2163] ({CH2CO}-[2Thi]Y(Carboxymethyl)D[Phe(3-Me)][Phe(4-COOH)][Bip]Y(Carboxymethyl)[NMeA][dL][Dab][Cha][Val(3-OH)]HC[Dab](Ac)-NH2; thioether N-14)
14 | 0.01 µM | CC(C)C[C@@H]1NC(=O)[C@H](CCN)NC(=O)[C@@H](CC(C)C)NC(=O)[C@H](C)N(C)C(=O)[C@H](CCCNC(N)=O)NC(=O)[C@H](Cc2ccc(-c3ccccc3)cc2)NC(=O)[C@H](C(C)C)NC(=O)[C@H](Cc2c[nH]c3ccccc23)NC(=O)[C@H](CC(=O)O)NC(=O)[C@H](Cc2ccc(O)cc2)NC(=O)[C@H](CN)NC(=O)CSC[C@@H](C(=O)N[C@@H](C)C(N)=O)NC(=O)[C@H]([C@@H](C)O)NC(=O)[C@H](C(C)C)NC1=O [Compound 1345] ({CH2CO}-[Dap]YDWV[Bip][Cit][NMeA][dL][Dab]LVTCA-NH2; thioether N-14)
15 | 0.01 µM | CC(C)C[C@@H]1NC(=O)[C@H](Cc2c[nH]c3ccccc23)NC(=O)[C@H](CC(=O)O)NC(=O)[C@H](Cc2ccc(O)cc2)NC(=O)[C@H](Cc2ccccc2)NC(=O)CSC[C@@H](C(=O)N[C@@H](C)C(N)=O)NC(=O)[C@H](CO)NC(=O)[C@H](C(C)C)NC(=O)[C@H](CC(C)C)NC(=O)[C@H](CC(N)=O)NC(=O)[C@@H](C)NC(=O)[C@H](C)N(C)C(=O)[C@H](C(C)C)NC(=O)[C@H](Cc2ccc(-c3ccccc3)cc2)NC1=O [Compound 1727] ({CH2CO}-FYDWL[Bip]V[NMeA][dA]NLVSCA-NH2; thioether N-14)
